What follows are compounds tested on HIV-1 long terminal repeat (LTR)-driven luciferase reporter gene in FlipIn.FM HEK293 cells (assay: cells). Settings: HIV-LTR driven latent reporter; 11-point, 2-fold dilution series, highest concentration 40 μM; read-out: Latent reporter Av EC50.
Assay type: cell-based
Protocol: FIG. 44. […] The FlipIn.FM model of HIV-1 latency was treated with JQ1 (+) and DP#14 (Compound 7) alone at 10 μM and in combination, and the HIV-1 gene expression measured 48 hrs post treatment. Error bars represent standard deviation of n=3 experiments. OPTI represents media alone, without DP#14.
FIG. 46. […] The FlipIn.FM model of HIV-1 latency was treated with PFI-1 and DP#14 alone at 10 μM and in combination, and the HIV-1 gene expression measured 48 hrs post treatment. Error bars represent standard deviation of n=3 experiments. OPTI represents media alone, without DP#14.
Explicitly, HEK293 derived FlipIn-FM and FlipIn-RV dual reporter cells each include a single stable HIV-1 long terminal repeat (LTR)-driven luciferase reporter genes, with a second complimentary non-HIV (off-target) luciferase reporter. These cell lines model post integration latency and read-through transcription by expressing a low level of HIV-1 Tat protein via a native Internal Ribosome Entry Site (IRES) found within Tat, from a chimeric cellular-tat gene cassette. FlipIn-FM and FlipIn-RV clones were chosen for low basal levels of LTR activity and high responsiveness to Tat as well as many Latency Reversing Agents (LRAs).
The dual reporter cell lines contain three stably integrated constructs that together allow for detection of novel LRAs, capable of potent and specific HIV reactivation. The FlipIn.FM line contains a proviral LTR-driven nef/CBR reporter fusion gene, allowing for detection of viral gene expression. A second CMV-driven CBG luciferase reporter allows for detection of off target drug effects, including non-specific activation and drug toxicity. The third construct contains the first coding exon of HIV-1 tat, within human Growth Hormone (hGH) as a chimeric gene, expressing HIV-1 Tat protein from an IRES mechanism that underlies the tat exon. This construct models read-through transcription and the low level of Tat protein expression that occurs during post integration latency. The counter screening reverse cell line, FlipIn.RV, contains the same three components with the Click Beetle Luciferase genes in the opposite orientation (LTR-CBG and CMV-CBR) for counter screening.
Compounds were evaluated in an 11-point titration using normal CMV-CBG/LTR-CBR reporter cell line and an 11 point reverse CMV-CBR/LTR-CBG reporter cell line.
The FlipIn cell lines were therefore designed with a dual purpose, to detect novel compounds that reactivate HIV-1 and to also screen out compounds that behaved in a largely non-specific manner. To achieve the latter, the cell lines contain an “off target” reporter gene construct, driven by the unrelated CMV-IE promoter, that allows for the detection of drug mediated off target effects including global gene activation as well as possible toxicity.
The HIV-LTR driven latent reporter gene identifies the HIV-specific activation, and the term “global reporter” is interchangeable with “off target reporter” and refers to the unrelated CMV-IE promoter driven reporter gene, which is used as a surrogate for global gene activation. […] The highest concentration tested here was 40 μM.
Compound `Cc1cnc(NC(=O)CCCOc2ccc(Cl)c(C)c2)s1` [Compound 1] has an EC50 of 4.88 µM.

Same assay, conditions: Human immunodeficiency virus 1, HEK293, HIV-LTR driven latent reporter; 11-point, 2-fold dilution series, highest concentration 40 μM; read-out: Latent reporter Av EC50
Compound `Cc1cnc(NC(=O)CCCCc2ccccc2)s1` [Compound 4] has an EC50 of 9.26 µM.
Work on `N#Cc1cnc(NC(=O)CCCOc2ccccc2)s1` [Compound 5] yielded an EC50 of 3.48 µM.
`CCc1cnc(NC(=O)CCCOc2ccccc2)s1` [Compound 6] gave an EC50 of 1.09 µM.
`O=C(CCCOc1ccccc1)Nc1ncc(Cl)s1` [Compound 8] was tested, and the EC50 was 1.99 µM.
`Cc1cnc(NC(=O)CCCOc2ccc(Cl)c(Cl)c2)s1` [Compound 12] showed an EC50 of 3.22 µM.
In the case of `Cc1cnc(NC(=O)CCCOc2ccc(Br)c(Cl)c2)s1` [Compound 14], the EC50 is reported as 3.09 µM.
For `O=C(CCCOc1ccc(Br)c(Cl)c1)Nc1ncc(Br)s1` [Compound 15], the EC50 was 2.56 µM.
Work on `O=C(CCCOc1ccc(Cl)c(Cl)c1)Nc1ncc(Br)s1` [Compound 16] yielded an EC50 of 1.23 µM.
In the case of `Cc1cc(OCCCC(=O)Nc2ncc(Br)s2)ccc1Cl` [Compound 17], the EC50 is reported as 2.83 µM.
With `O=C(CCCOc1ccc(Br)c(Cl)c1)Nc1ncc(Cl)s1` [Compound 18] the EC50 was 2.83 µM.
`O=C(CCCOc1ccc(Cl)c(Cl)c1)Nc1ncc(Cl)s1` [Compound 19] was tested, and the EC50 was 1.48 µM.
Work on `Cc1cc(OCCCC(=O)Nc2ncc(Cl)s2)ccc1Cl` [Compound 20] yielded an EC50 of 1.85 µM.
`N#Cc1cnc(NC(=O)CCCOc2ccc(Br)c(Cl)c2)s1` [Compound 21] showed an EC50 of 2.12 µM.
For `CCc1cnc(NC(=O)CCCOc2ccc(Br)c(Cl)c2)s1` [Compound 22], the EC50 was 2.01 µM.
`O=C(CCCOc1ccccc1)Nc1ccc(Br)cn1` [Compound 29] was tested, and the EC50 was 7.6 µM.
Work on `O=C(CCCOc1ccccc1)Nc1ccc(C(F)(F)F)cn1` [Compound 30] yielded an EC50 of 9.74 µM.
`Cc1cnc(NC(=O)CCCOc2ccc(Cl)c(C)c2)s1` [Compound 36] gave an EC50 of 4.2 µM.
Work on `Cc1cnc(NC(=O)CCCOc2ccc(Cl)c(C(F)(F)F)c2)s1` [Compound 38] yielded an EC50 of 5.07 µM.
`O=C(CCCOc1ccccc1)Nc1ccc(Cl)cn1` [Compound 40] showed an EC50 of 6.86 µM.
`COc1ccccc1OCCCC(=O)Nc1ncc(C)s1` [Compound 42] gave an EC50 of 1.42 µM.
`Cc1cnc(NC(=O)CCCOc2cccc(O)c2)s1` [Compound 43] showed an EC50 of 12.5 µM.
With `COc1cccc(OCCCC(=O)Nc2ncc(C)s2)c1` [Compound 44] the EC50 was 5.3 µM.
For `Cc1cnc(NC(=O)CCCOc2cccc([N+](=O)[O-])c2)s1` [Compound 45], the EC50 was 5.29 µM.
Work on `Cc1cnc(NC(=O)CCCOc2cccc(Cl)c2)s1` [Compound 46] yielded an EC50 of 5.23 µM.
With `Cc1cnc(NC(=O)CCCOc2cccc(C(F)(F)F)c2)s1` [Compound 47] the EC50 was 6.55 µM.
`Cc1cnc(NC(=O)CCCOc2cccc(CO)c2)s1` [Compound 48] was tested, and the EC50 was 4.13 µM.
Work on `Cc1cnc(NC(=O)CCCOc2cccc(C=O)c2)s1` [Compound 49] yielded an EC50 of 2.64 µM.
Work on `O=C(CCCOc1ccccc1)Nc1ncc(C(F)(F)F)s1` [Compound 51] yielded an EC50 of 2.37 µM.
In the case of `CC(C)c1cnc(NC(=O)CCCOc2ccccc2)s1` [Compound 52], the EC50 is reported as 3.8 µM.
With `Cc1cc(OCCCC(=O)Nc2ccc(Cl)cn2)ccc1Cl` [Compound 54] the EC50 was 19.4 µM.
For `COc1ccc(NC(=O)CCCOc2ccc(Cl)c(C)c2)nc1` [Compound 55], the EC50 was 17.9 µM.
Compound `Cc1cnc(NC(=O)CCCN(C)c2ccccc2)s1` [Compound 56] has an EC50 of 14.8 µM.
`Cc1cnc(NC(=O)CCCNc2ccc(Cl)c(C)c2)s1` [Compound 57] was tested, and the EC50 was 1.7 µM.
Compound `Cc1cnc(NC(=O)CCCNc2ccc(Cl)c(C(F)(F)F)c2)s1` [Compound 58] has an EC50 of 2 µM.
Work on `Cc1cnc(NC(=O)CCCN(C)c2ccc(Cl)c(C)c2)s1` [Compound 59] yielded an EC50 of 1.11 µM.
`Cc1ccc(OCCCC(=O)Nc2ncc(Cl)s2)cc1Cl` [Compound 60] showed an EC50 of 3.56 µM.
`Cc1cc(OCCCC(=O)Cc2ncc(C(C)C)s2)ccc1Cl` [Compound 61] was tested, and the EC50 was 4.29 µM.
`Cc1cc(OCCCC(=O)Nc2ncc(C(F)(F)F)s2)ccc1Cl` [Compound 62] was tested, and the EC50 was 4.74 µM.
For `Cc1cnc(NC(=O)N2CCN(c3ccc(C)c(Cl)c3)CC2)s1` [Compound 63], the EC50 was 0.45 µM.
`Cc1cnc(NC(=O)N2CCN(c3ccc(Cl)c(Cl)c3)CC2)s1` [Compound 66] showed an EC50 of 0.58 µM.
`O=C(Nc1ncc(Cl)s1)N1CCN(c2ccc(Cl)c(Cl)c2)CC1` [Compound 67] gave an EC50 of 0.27 µM.
Compound `N#Cc1cnc(NC(=O)N2CCN(c3ccc(Cl)c(Cl)c3)CC2)s1` [Compound 68] has an EC50 of 0.52 µM.
`Cc1cnc(NC(=O)N2CCN(c3ccc(Cl)c(C)c3)CC2)s1` [Compound 69] showed an EC50 of 0.34 µM.
With `Cc1cc(N2CCN(C(=O)Nc3ncc(Cl)s3)CC2)ccc1Cl` [Compound 70] the EC50 was 0.21 µM.
Work on `Cc1cc(N2CCN(C(=O)Nc3ncc(C#N)s3)CC2)ccc1Cl` [Compound 71] yielded an EC50 of 0.88 µM.
In the case of `Cc1cc(N2CCN(C(=O)Nc3ncc(Cl)s3)CC2)ncc1C#N` [Compound 72], the EC50 is reported as 0.25 µM.
Compound `Cc1ccc(N2CCCN(C(=O)Nc3ncc(Cl)s3)CC2)cc1Cl` [Compound 74] has an EC50 of 5.2 µM.
For `O=C(Nc1ncc(Cl)s1)N1CCCN(c2ccc(Cl)c(Cl)c2)CC1` [Compound 75], the EC50 was 5.46 µM.
Compound `Cc1cnc2[nH]c(CCCOc3ccc(C)c(Cl)c3)nc2c1` [Compound 76] has an EC50 of 7.75 µM.
`Cc1ccc(OCCCc2nc3cc(Br)cnc3[nH]2)cc1Cl` [Compound 77] was tested, and the EC50 was 3.97 µM.
For `Cc1ccc(N2CCC(C(=O)Nc3ncc(Cl)s3)CC2)cc1Cl` [Compound 78], the EC50 was 11.4 µM.
Work on `Cc1ccc(N2CCC(C(=O)Nc3ncc(C#N)s3)CC2)cc1Cl` [Compound 79] yielded an EC50 of 3.83 µM.
`Cc1cnc(NC(=O)N2CCC(Nc3ccc(Cl)c(C)c3)C2)s1` (centres unmarked) [Compound 80] gave an EC50 of 10.1 µM.
`Cc1cc(NC2CCN(C(=O)Nc3ncc(Cl)s3)C2)ccc1Cl` (centres unmarked) [Compound 81] showed an EC50 of 1.5 µM.
`Cc1cc(OCCC(=O)Nc2ncc(Cl)s2)ccc1Cl` [Compound 83] gave an EC50 of 2.2 µM.
